This note sets out measurements from patent US8134006B2, “Dialkylphenyl compounds having β2 adrenergic receptor agonist and muscarinic receptor antagonist activity” (Theravance, Inc., priority 2006, dated 2012).

Test [1] deals with acetylcholine or histamine bronchoconstriction. As to the kind of experiment: Plethysmograph guinea pig assay for bronchoprotective efficacy and duration. The conditions noted are these: doses ranging from 3 μg/mL to 300 μg/mL, inhalation.
Procedure: In this assay, the bronchoprotective efficacy and duration of test compounds was determined using a guinea pig assay.
Groups of 6 male guinea pigs (Duncan-Hartley (HsdPoc:DH) Harlan, Madison, Wis.) weighing between 250 and 350 g were individually identified by cage cards. Throughout the study, animals were allowed access to food and water ad libitum. Test compounds were administered via inhalation over 10 minutes in a whole-body exposure dosing chamber (R&S Molds, San Carlos, Calif.). The dosing chambers were arranged so that an aerosol was simultaneously delivered to 6 individual chambers from a central manifold. Guinea pigs were exposed to an aerosol of a test compound or vehicle (WFI). […] The gas flow through the nebulizer at this operating pressure was approximately 3 L per minute. […] This value was measured gravimetrically by comparing pre- and post-nebulization weights of the filled nebulizer. […]
The pulmonary evaluation was initiated after determining that baseline values were within the range of 0.3 to 0.9 mL per cm H2O for compliance and within the range of 0.1 to 0.199 cm H2O per mL per second for resistance. […] The changes in volume over time that occurred within the plethysmograph with each breath were measured via a Buxco pressure transducer. By integrating this signal over time, a measurement of flow was calculated for each breth. […]
The target in a further test is cM5 receptor (UniProt Q5IS53). As to the kind of experiment: Blockade of agonist-mediated calcium release via FLIPR. The class given is cell-based. The conditions noted are these: CHO cells expressing cM5, read-out: Kobs. The method, then: In this functional assay, the functional potency of a test compound as an antagonist of hM1, hM3 and […] receptors was determined by measuring the ability of the test compound to inhibit agonist-mediated increases in intracellular calcium.
Chain of cM5 receptor (Q5IS53 whole entry): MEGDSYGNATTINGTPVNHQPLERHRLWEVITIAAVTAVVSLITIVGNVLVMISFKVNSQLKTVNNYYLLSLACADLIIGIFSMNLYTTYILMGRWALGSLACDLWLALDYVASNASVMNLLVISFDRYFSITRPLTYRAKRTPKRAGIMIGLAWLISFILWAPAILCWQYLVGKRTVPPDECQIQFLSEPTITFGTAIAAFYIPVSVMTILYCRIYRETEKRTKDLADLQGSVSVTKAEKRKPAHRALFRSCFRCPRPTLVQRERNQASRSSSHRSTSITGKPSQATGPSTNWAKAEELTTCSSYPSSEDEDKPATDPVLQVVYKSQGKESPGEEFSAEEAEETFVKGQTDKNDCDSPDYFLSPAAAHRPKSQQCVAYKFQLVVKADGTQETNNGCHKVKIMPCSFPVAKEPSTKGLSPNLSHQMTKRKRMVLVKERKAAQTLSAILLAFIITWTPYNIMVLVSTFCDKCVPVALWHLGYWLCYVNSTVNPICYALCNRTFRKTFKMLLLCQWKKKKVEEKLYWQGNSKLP
CHO cells stably expressing the receptors were seeded into 96-well FLIPR plates the night before the assay was done. Seeded cells were washed twice with FLIPR buffer (10 mM HEPES, pH 7.4, 2 mM calcium chloride, 2.5 mM probenecid in Hank's Buffered Salt Solution (HBSS) without calcium and magnesium) using Cellwash (MTX Labsystems, Inc.) to remove growth media. After washing, each well contained 50 μL of FLIPR buffer. […]
The dose-dependent stimulation of intracellular Ca^2+ release for oxotremorine was determined so that the test compound could be measured against oxotremorine stimulation at an EC90 concentration. […]
The parameters used for the FLIPR were: exposure length of 0.4 seconds, laser strength of 0.5 watts, excitation wavelength of 488 nm, and emission wavelength of 550 nm. Baseline was determined by measuring the change in fluorescence for 10 seconds prior to addition of oxotremorine. Following oxotremorine stimulation, the FLIPR continuously measured the change of fluorescence every 0.5 to 1 second for 1.5 minutes to capture the maximum fluorescence change. […]

The target in test [2] is T1, human β2 adrenergic receptor (Homo sapiens, UniProt P07550).
T1 construct: a cell line expressing endogenous levels of the β2 adrenergic receptor; host or cells: BEAS-2B human lung epithelial cell line
T1 sequence (P07550 whole entry): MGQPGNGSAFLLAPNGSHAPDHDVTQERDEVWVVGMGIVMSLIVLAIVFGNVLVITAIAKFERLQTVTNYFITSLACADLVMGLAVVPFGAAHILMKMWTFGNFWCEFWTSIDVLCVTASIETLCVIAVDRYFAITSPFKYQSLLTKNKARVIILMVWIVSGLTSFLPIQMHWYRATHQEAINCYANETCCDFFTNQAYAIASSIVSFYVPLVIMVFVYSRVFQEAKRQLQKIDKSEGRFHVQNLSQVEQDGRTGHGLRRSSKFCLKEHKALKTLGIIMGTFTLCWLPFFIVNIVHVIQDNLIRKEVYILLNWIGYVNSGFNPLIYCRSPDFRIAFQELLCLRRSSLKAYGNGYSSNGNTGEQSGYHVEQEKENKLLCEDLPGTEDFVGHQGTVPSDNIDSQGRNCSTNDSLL
As to the kind of experiment: Whole-cell cAMP Flashplate assay with lung epithelial cell line (BEAS-2B) endogenously expressing β2 receptor. The class given is cell-based. The settings on record: BEAS-2B cells, compared with full β2 agonist isoproterenol (1.0). The method, then: In this assay, the agonist potency and intrinsic activity of a test compound were determined using a cell line expressing endogenous levels of the β2 adrenergic receptor.
On the day of the assay, cells were rinsed with PBS, lifted by scraping with 5 mM EDTA in PBS, and counted. Cells were pelleted by centrifugation at 1,000 rpm and re-suspended in stimulation buffer pre-warmed to 37° C. at a final concentration of 600,000 cells/mL. Cells were used at a final concentration of 100,000 to 120,000 cells/well in this assay. […] Plates were sealed, incubated over night at 4° C. and counted the next morning in a Topcount scintillation counter (Packard BioScience Co., Meriden, Conn.). […] Data were analyzed by nonlinear regression analysis with the GraphPad Prism Software package (GraphPad Software, Inc., San Diego, Calif.) using the 4-parameter model for sigmoidal dose-response.

The next test concerns bronchoconstriction. As to the kind of experiment: Einthoven assay, duration of bronchoprotection. The settings on record: inhalation.
The subject of test [3] is histamine-induced bronchoconstriction. As to the kind of experiment: Einthoven assay, bronchoprotective efficacy against histamine. The conditions noted are these: 1.5 hours post-dose, inhalation.
Procedure: (§1) In this assay, the bronchoprotective efficacy and duration of test compounds were determined using guinea pigs. […] In this assay, changes in ventilation pressure serve as a surrogate measure of airway resistance. Following pre-treatment with a test compound, muscarinic antagonist potency was determined using bronchoconstrictor dose-response curves to intravenous methacholine in the presence of propranolol. Similarly, β2 agonist bronchoprotective potency was determined using histamine. Combined bronchoprotective potency was determined using methacholine in the absence of propranolol.
(§2) The assay was conducted using male Duncan-Hartley guinea pigs (Harlan, Indianapolis, Ind.), weighing between 250 and 400 g. A test compound or vehicle (i.e., sterile water) was dosed by inhalation (IH) over a 10 minute time period in a whole body exposure dosing chamber (R+S Molds, San Carlos, Calif.) using 5 mL of dosing solution. […] Pulmonary function was evaluated at various time points after inhalation dosing.
(§3) The trachea was then dissected free and cannulated with a 14G needle (#NE-014, Small Parts, Miami Lakes, Fla.). […] Body temperature was maintained at 37° C. using a heating pad. […] The changes in VP were recorded on a Biopac Windows data collection interface. […] Changes in VP were recorded using the Acknowledge Data Collection Software (Santa Barbara, Calif.). […]
(§4) Change in VP was measured in cm of water. […]
Test [4] deals with methacholine-induced bronchoconstriction. As to the kind of experiment: Einthoven assay, bronchoprotective efficacy against methacholine. The settings on record: 1.5 hours post-dose, inhalation.
Procedure: as §1, §2, §3, §4

`O=CNc1cc([C@@H](O)CNCc2ccc(NC(=O)CCN3CCC(OC(=O)Nc4ccccc4-c4ccccc4)CC3)cc2)ccc1O` [compound 50]: the “bronchoprotection at 24 hours post-dose” value in test [1] is recorded as “no significant bronchoprotection”.
On to `Cc1cc(NC(=O)CCN2CCC(OC(=O)Nc3ccccc3-c3ccccc3)CC2)c(C)cc1CNC[C@H](O)c1ccc(O)c(NC=O)c1` [compound IIa, biphenyl-2-ylcarbamic acid 1-[2-(4-{[(R)-2-(3-formylamino-4-hydroxyphenyl)-2-hydroxyethylamino]methyl}-2,5-dimethylphenylcarbamoyl)ethyl]piperidin-4-yl ester], for which the Ki at cM5 receptor was below 10 nM. In test [2], the intrinsic activity result is on record as “greater than 0.3”. The “duration of significant bronchoprotection” value in the test with bronchoconstriction (single sub-maximal dose 100 μg/mL) is reported as “up to 72 hours”. In addition, the ID50 entry in test [3] and in test [4] was “less than 50 μg/mL” in each case.
On to `C[N+]1(C)[C@@H]2C[C@@H](OC(=O)C(O)(c3cccs3)c3cccs3)C[C@H]1[C@@H]1O[C@@H]12` [tiotropium, reference compound], for which the “duration of significant bronchoprotection” value in the test with bronchoconstriction (10 μg/mL) is “greater than 72 hours”.
